Test results: patent US10420781B2, “Thyroid hormone receptor agonist and use thereof” (Metabasis Therapeutics, Inc., priority 2016, dated 2019)
Entries after “also recorded” stand apart in the source; their conditions may differ.

How the values were obtained:
rat = assay: Pilot rat 28-day safety study; details: 28 days; 1 and 5 mg/kg per day
Method: Two doses were tested, 1 mg/kg per day and 5 mg/kg per day. […] The mice were sacrificed on day 29 and then analyzed for clinical signs, BW, FC Clinical pathology (including TSH, T3, T4), gross pathology, organ weights, histopathology, toxicokinetics.

beagle dogs [1] = assay: Once-daily oral administration for 14 days, thyroid function tests (tT4, fT4, tT3, fT3, TSH) in beagle dogs; assay type: in vivo, dog
Method: (§1) The effects of once-daily oral administration of Compound I on plasma cholesterol levels and thyroid function indicators in beagle dogs were evaluated for 14 days.
(§2) Male and female beagle dogs were purchased from Marshall Farms (North Rose, N.Y.) at approximately 9-15 kg in body weight. Animals were housed individually under a 12 hour lighting cycle (7 am-7 pm light) and controlled temperature (˜22° C.). The dogs were fed twice-daily with Teklad 8563 chow (Harlan Teklad, Madison, Wis.) and allowed water ad libitum.
Compound I was dissolved in 100% PEG-400. The formulation was prepared just prior to initiation of treatment and stored at 4° C. A fresh formulation was prepared for each 7 day treatment period.
Twelve beagle dogs (9-15 kg) were randomized into 6 dosing groups (1 male and 1 female/group) and gavaged once-daily with a PEG-400 solution of Compound I at doses of 0.1, 0.3, 1, 3, or 10 mg/kg or with vehicle for 14 days. At the end of the treatment cycle (Cycle 1), the dogs were washed out for 6 weeks and then entered into a second 14-day treatment cycle. Cycle 2 employed the same dosing paradigm as Cycle 1, but animals were randomized to Cycle 2 in such a way that the combined dosing groups from the two cycles each consisted of 4 different animals (2 males, 2 females). Blood samples were collected at baseline and appropriate time intervals thereafter and analyzed for total plasma cholesterol levels, serum levels of total T4 (tT4), free T4 (fT4), total T3 (tT3), free T3 (fT3), thyroid stimulating hormone (TSH), and plasma drug levels.
Serum samples were shipped on dry ice to the Diagnostic Center for Population and Animal Health (Lansing, Mich.) and assayed for total T4 (tT4), free T4 (fT4), total T3 (tT3), free T3 (fT3), and thyroid stimulating hormone (TSH). Average values±the standard error of the mean (SEM) were calculated for all treatment groups.

beagle dogs [2] = assay: Once-daily oral administration for 14 days, total plasma cholesterol in beagle dogs; assay type: in vivo, dog; details: 14 days once-daily oral, 0.1-10 mg/kg/day
Method: as §1, §2
Compound I was dissolved in 100% PEG-400. The formulation was prepared just prior to initiation of treatment and stored at 4° C. […]
(§3) Twelve beagle dogs (9-15 kg) were randomized into 6 dosing groups (1 male and 1 female/group) and gavaged once-daily with a PEG-400 solution of Compound I at doses of 0.1, 0.3, 1, 3, or 10 mg/kg or with vehicle for 14 days. […] Blood samples were collected at baseline and appropriate time intervals thereafter and analyzed for total plasma cholesterol levels, serum levels of total T4 (tT4), free T4 (fT4), total T3 (tT3), free T3 (fT3), thyroid stimulating hormone (TSH), and plasma drug levels.
Total plasma cholesterol was measured using an Infinity cholesterol reagent (Thermo Electron Corporation, Waltham, Mass.) and with use of a standard curve prepared from a 300 mg/dL cholesterol standard. […]

beagle dogs [3] = assay: Comparison of Compound I and MB07811: cholesterol, tT4 and TSH in beagle dogs; assay type: in vivo, dog
Method: Compound I was compared with Compound MB07811 with respect to their efficacy in lowering cholesterol and their effects on the total T4 (tT4) and thyroid stimulating hormone (TSH).
Compound I and Compound MB07811 were tested to determine the effects of oral administration of each compound once-daily for 14 days followed by alternate day dosing for 14 days on plasma cholesterol levels and indicators of thyroid function in beagle dogs.
as §2, with “Beagle” for “beagle”, “kg.” for “kg in body weight.”, “12-hour” for “12 hour”, “twice daily” for “twice-daily”
MB07811 was administered as a suspension in 0.5% CMC/1% Lutrol in deionized water. To prepare the vehicle, the required amount of CMC was weighed and dissolved in deionized water using a Waring blender. The required amount of Lutrol F68 was weighed and slowly added to the Waring blender while mixing. […]
as §3, with “0.5% CMC/1% Lutrol F68 suspension” for “PEG-400 solution”, “MB07811” for “Compound I”, “[…]” for “mg/kg”, “(fT3), and” for “(fT3),”, “(TSH). […]” for “(TSH), and plasma drug levels.”
Twelve beagle dogs (9-15 kg) were randomized into 6 dosing groups (1 male and 1 female/group) and gavaged once-daily with a PEG-400 solution of Compound I at doses of 0.1, 0.3, 1, 3, or 10 mg/kg or with vehicle for 14 days. […] Blood samples were collected at baseline and appropriate time intervals thereafter and analyzed for total plasma cholesterol levels, serum levels of total T4 (tT4), free T4 (fT4), total T3 (tT3), free T3 (fT3), and thyroid stimulating hormone (TSH), and for plasma drug levels

[4] = test system: fT3 and fT4 levels in dog serum; assay: Ex vivo effect on fT3 and fT4 levels in dog serum (RIA); details: 1 h at 37° C., 1-100 μM tested
Method: (§4) Compound I was tested to measure its ex vivo effects at concentrations ranging from 0 to 100 μM on the free 3,5,3′-triiodothyronine (fT3) and the free 3,5,3′,5′ tetraiodothyronine (fT4) levels in human, monkey, dog, and rat sera.
(§5) Stock solution of Compound I was prepared in 100% DMSO. The test articles were combined with either human, monkey, dog or rat serum in a microcentrifuge tube at concentrations of 1, 3, 10, 30, and 100 μM, and incubated at 37° C. with agitation (800 rpm) using a Thermomixer R (Eppendorf, Inc.; Westbury, N.Y.) for 1 h. The DMSO concentration in the serum incubations was kept constant at 1%. Following the serum incubations, fT3 and T4 quantification was accomplished using the GammaCoat™ FT3 and the GammaCoat™ FT4 RIA kits, respectively. The kits were used according to the manufacturer's recommendations. The T3 assay specifications indicate 0.2% cross-reactivity with T4, while the T4 assay specifications indicate 0.5% cross-reactivity with T3. In these […] assays, a shaking water bath and a Wallac Wizard 1470 automatic gamma counter (Perkin Elmer, Inc.; Waltham, Mass.) were used. At each concentration tested, a background signal was subtracted from the data. This background signal was determined in samples of the test articles in PBS in the absence of serum. All assays were performed in duplicate.

[5] = test system: fT3 and fT4 levels in monkey serum; assay: Ex vivo effect on fT3 and fT4 levels in monkey serum (RIA); details: 1 h at 37° C., 1-100 μM tested
Method: as §4, §5

[6] = test system: fT3 and fT4 levels in human serum; assay: Ex vivo effect on fT3 and fT4 levels in human serum (RIA)
Method: as §4, §5

[7] = test system: fT3 and fT4 levels in rat serum; assay: Ex vivo effect on fT3 and fT4 levels in rat serum (RIA); details: 1 h at 37° C., 1-100 μM tested
Method: as §4, §5

[8] = test system: cholesterol-fed Sprague Dawley rat; assay: Single oral dose, plasma cholesterol lowering in cholesterol-fed rat; assay type: in vivo; details: 24 hours
Method: Compound I was tested to determine the cholesterol lowering efficacy and potency of Compound I following oral administration of single dose to a standard rodent model of hypercholesterolemia, the cholesterol-fed Sprague Dawley rat.
Male Sprague Dawley rats were obtained from Harlan (Livermore, Calif.) at a body weight of 250 g, caged 3 rats/cage, and housed under a 12 h:12 h, light:dark cycle (lights on at 7 AM). Pelleted 5001 chow containing 1.5% cholesterol and 0.5% cholic acid (Harlan Teklad, Indianapolis, Ind.) was provided for 2 weeks prior to the initiation of treatment. Food and water were provided ad libitum.
Compound I was dissolved in 100% PEG-400. […]
Male Sprague Dawley rats (˜250 g) were fed a diet containing 1.5% cholesterol and 0.5% cholic acid for 2 weeks prior to the initiation of treatment. Compound I was administered as an oral solution in PEG-400 and phosphate buffered saline, respectively, at doses ranging from 0.3 to 100 mg/kg Compound I. Thyroid hormone T3 (0.1 mg/kg) was evaluated as a positive control. […]
Plasma was prepared from the blood samples by centrifugation in an Eppendorf Microfuge (14,000 rpm, 2 min, room temperature). Total plasma cholesterol was measured using the Infinity cholesterol reagent (Thermo Electron Corporation, Waltham, Mass.) and a standard curve prepared with a 300 mg/dL cholesterol standard. […]

[9] = all five doses 0.1, 0.3, 1, 3, 10 mg/kg, baseline, 8-day, 15-day

## Cc1cc(OCP(=O)(OCOC(=O)C(C)(C)C)OCOC(=O)C(C)(C)C)cc(C)c1Cc1ccc(O)c(Cc2ccccc2)c1 [Compound I]
rat
  TFT effects greater than Compound MB07811: no evidence
  cardiac or liver necrosis: no evidence
  deaths or adverse effects on body weight, food consumption, hematology, serum chemistry or urinalysis, or macroscopic or microscopic pathology: no deaths or adverse effects
Beagle dogs [1]; 14 days, highest dose group 10 mg/kg/day
  reduction of serum fT3: about 45%
Beagle dogs [1]; Day 15, 1 mg/kg/day
  reduction of serum tT4 from baseline: about 29%
Beagle dogs [1]; Day 15, 10 mg/kg/day
  tT4 levels reduced relative to baseline (in the fT3 paragraph, FIG. 9): ~45%
Beagle dogs [1]; Day 15, 0.1, 0.3 and 3 mg/kg/day
  reduction of serum tT4 from baseline: 6.7-9.5%
Beagle dogs [1]; Day 15, 0.1 to 10 mg/kg/day
  change of serum TSH levels from baseline: no meaningful changes; also recorded: did not show any effect; also recorded: essentially unaffected
Beagle dogs [1]; Day 15, all Compound I treated groups, not dose dependent, vehicle about 19%
  reduction of serum fT4 from baseline: 13-32%
Beagle dogs [1]; Day 15, doses up to and including 3 mg/kg/day
  reduction of serum fT3 from baseline: 8-20%
Beagle dogs [1]; Day 15, treatment groups, not dose dependent, vehicle about 13%
  reduction of serum tT3 from baseline: 8-15%
Beagle dogs [2]
  reduction of total plasma cholesterol levels, dose dependent: 15-38%
Beagle dogs [3]; [9]
  effect on T4 (tT4) levels in comparison: reduced effect
  effect on serum TSH level in comparison with MB07811: no effect
Beagle dogs [3]; dog, in vivo
  effect on the thyroid hormone axis (T4 and TSH) versus MB07811: much reduced effect
[4]
  highest concentration at which no increase in fT3 level was observed: 100 µM
  highest concentration at which no increase in fT4 level was observed: 100 µM
[5]
  highest concentration at which no increase in fT3 level was observed: 30 µM
  highest concentration at which no increase in fT4 level was observed: 100 µM
[6]
  concentration at which no effect on fT3 was shown: less than 30
  concentration at which no effect on fT4 was shown: less than 100 μM
[6]; 1 h at 37° C., 1-100 μM tested
  highest concentration at which no increase in fT3 level was observed: 30 µM
  highest concentration at which no increase in fT4 level was observed: 100 µM
[7]
  highest concentration at which no increase in fT3 level was observed: 100 µM
  highest concentration at which no increase in fT4 level was observed: 100 µM
[8]; Rattus norvegicus, single oral dose, read-out: ED50 (dose that elicits a half-maximal reduction in total plasma cholesterol levels from baseline)
  ED50: ~2 mg/kg

## N[C@@H](Cc1cc(I)c(Oc2ccc(O)c(I)c2)c(I)c1)C(=O)O [Compound T3, 3,5,3′-triiodo-L-thyronine, reference compound]
[8]; T3 0.1 mg/kg, Compound I 30 and 100 mg/kg
  magnitude of cholesterol lowering versus Compound I at its two highest doses: comparable
